Key:
[1] = molecular target: PHD2 enzyme (residues 181-417) (Homo sapiens (Human), UniProt Q9GZT9); assay: Inhibition of PHD enzyme (LC/MS peptide hydroxylation assay); type: biochemical; conditions: PHD2 (residues 181-417) 5 nM, 60 min pre-incubation; -log(IC50), IC50 molar
Procedure, shortened: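 PHD2 (5 nM final) preincubated with inhibitor 60 min at RT in 50 mM HEPES, 50 mM KCl, 0.5 mM TCEP, 2 uM FeCl2, 0.1 mg/ml BSA, pH 7.3. Reaction started with biotin-peptide (1 uM), 2-oxoglutarate (2 uM), ascorbate (1 mM), quenched at 60 min; hydroxylated product by LC/MS, reported as pIC50.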

[2] = system: HIF1a protein in H9c2 rat cardiomyocytes; assay: Cell-based HIF-alpha stabilization assay (inhibition of PHD in cells); conditions: Rattus norvegicus, H9c2, 24 h, 24 hrs compound incubation, HIF1a protein by ELISA, read-out: Inhibition of PHD in cells (pEC50) (converted)
Procedure, shortened: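 Rat H9c2 cardiomyocytes, cultured 24 h, were treated 24 h with an 11-point serial dilution of compound. HIF1a in whole-cell lysates was quantified by ELISA as % of the maximal desferrioxamine response. EC50 came from curve fitting; EC50pos is the concentration reaching 50% of the desferrioxamine maximum.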

PHD2 enzyme (residues 181-417), sequence (Q9GZT9 181-417): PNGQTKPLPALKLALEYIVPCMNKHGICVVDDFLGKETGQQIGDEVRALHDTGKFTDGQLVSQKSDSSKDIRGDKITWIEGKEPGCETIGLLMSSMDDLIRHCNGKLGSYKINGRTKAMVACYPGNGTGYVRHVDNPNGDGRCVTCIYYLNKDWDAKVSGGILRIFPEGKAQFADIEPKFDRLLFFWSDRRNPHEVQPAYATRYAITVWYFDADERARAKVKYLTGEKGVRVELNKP

PHD Inhibition (pIC50) [1]	Compound	EC50 [2]
8.00	Cc1cc(C#N)ccc1-c1cnn(-c2ccc(C(=O)N3CCN(C4CCC4)CC3)cn2)c1O [Example 373, 4-(1-(5-(4-cyclobutylpiperazine-1-carbonyl)pyridin-2-yl)-5-hydroxy-1H-pyrazol-4-yl)-3-methylbenzonitrile]	1200 nM
7.16	CC[C@@H](C)NC(=O)c1ccc(-n2ncc(-c3ccc(C#N)cc3C)c2O)nc1 [Example 58, (R)—N-(sec-butyl)-6-(4-(4-cyano-2-methylphenyl)-5-hydroxy-1H-pyrazol-1-yl)nicotinamide]	158 nM
7.90	Cc1cc(C#N)ccc1-c1cnn(-c2ccc(C(=O)N3CCCC(N4CCCCC4)C3)cn2)c1O (stereo not shown) [Example 314, 4-(1-(5-([1,3′-bipiperidine]-1′-carbonyl)pyridin-2-yl)-5-hydroxy-1H-pyrazol-4-yl)-3-methylbenzonitrile]	550 nM
6.55	COCCC(C)NC(=O)c1ccc(-n2ncc(-c3ccnc(OC)c3)c2O)nc1 (stereo not shown) [Example 114, 6-(5-hydroxy-4-(2-methoxypyridin-4-yl)-1H-pyrazol-1-yl)-N-(4-methoxybutan-2-yl)nicotinamide]	257 nM
8.3	COCCCCNC(=O)c1ccc(-n2ncc(-c3ccc(C#N)cc3C)c2O)nc1 [Example 179, 6-(4-(4-cyano-2-methylphenyl)-5-hydroxy-1H-pyrazol-1-yl)-N-(4-methoxybutyl)nicotinamide]	123 nM
6.83	COc1cc(C#N)ccc1-c1cnn(-c2ccc(C(=O)N[C@H]3CC[C@@H](OC)CC3)cn2)c1O [Example 230, 6-(4-(4-cyano-2-methoxyphenyl)-5-hydroxy-1H-pyrazol-1-yl)-N-((1s,4s)-4-methoxycyclohexyl)nicotinamide]	407 nM
8.20	Cc1cc(C#N)ccc1-c1cnn(-c2ccc(C(=O)N3CCN(C4CC4)[C@@H](C)C3)cn2)c1O [Example 389, (S)-4-(1-(5-(4-cyclopropyl-3-methylpiperazine-1-carbonyl)pyridin-2-yl)-5-hydroxy-1H-pyrazol-4-yl)-3-methylbenzonitrile]	1150 nM
8.18	Cc1cc(C#N)ccc1-c1cnn(-c2ccc(C(=O)N3CCN(C)C[C@H]3C)cn2)c1O [Example 385, (R)-4-(1-(5-(2,4-dimethylpiperazine-1-carbonyl)pyridin-2-yl)-5-hydroxy-1H-pyrazol-4-yl)-3-methylbenzonitrile]	955 nM
8.4	Cc1cc(C#N)ccc1-c1cnn(-c2ccc(C(=O)NCCC3CCCO3)cn2)c1O (stereo not shown) [Example 245, 6-(4-(4-cyano-2-methylphenyl)-5-hydroxy-1H-pyrazol-1-yl)-N-(2-(tetrahydrofuran-2-yl)ethyl)nicotinamide]	240 nM
6.89	COCC1(NC(=O)c2ccc(-n3ncc(-c4ccnc(OC)c4)c3O)nc2)CC1 [Example 205, 6-(5-hydroxy-4-(2-methoxypyridin-4-yl)-1H-pyrazol-1-yl)-N-(1-(methoxymethyl)cyclopropyl)nicotinamide]	631 nM
8.50	Cc1cc(C#N)c(F)cc1-c1cnn(-c2ccc(C(=O)N3CCN(C)[C@@H](C)C3)cn2)c1O [Example 400, (S)-4-(1-(5-(3,4-dimethylpiperazine-1-carbonyl)pyridin-2-yl)-5-hydroxy-1H-pyrazol-4-yl)-2-fluoro-5-methylbenzonitrile]	1660 nM
7.23	CN(CCCN1CCCCC1)C(=O)c1ccc(-n2ncc(-c3ccc(C#N)cc3)c2O)nc1 [Example 304, 6-(4-(4-cyanophenyl)-5-hydroxy-1H-pyrazol-1-yl)-N-methyl-N-(3-(piperidin-1-yl)propyl)nicotinamide]	2820 nM
6.91	CC(C)N1CCC(NC(=O)c2ccc(-n3ncc(-c4ccc(C#N)cc4)c3O)nc2)CC1 [Example 115, 6-(4-(4-cyanophenyl)-5-hydroxy-1H-pyrazol-1-yl)-N-(1-isopropylpiperidin-4-yl)nicotinamide]	1820 nM
8.28	Cc1cc(C#N)c(F)cc1-c1cnn(-c2ccc(C(=O)N3CCN(C4CC4)CC3)cn2)c1O [Example 308, 4-(1-(5-(4-cyclopropylpiperazine-1-carbonyl)pyridin-2-yl)-5-hydroxy-1H-pyrazol-4-yl)-2-fluoro-5-methylbenzonitrile]	6610 nM
8.2	Cc1cc(C#N)ccc1-c1cnn(-c2ccc(C(=O)NCC3CCC(F)(F)CC3)cn2)c1O [Example 247, 6-(4-(4-cyano-2-methylphenyl)-5-hydroxy-1H-pyrazol-1-yl)-N-((4,4-difluorocyclohexyl)methyl)nicotinamide]	813 nM
8.39	Cc1c(-c2cnn(-c3ccc(C(=O)N4CCN(C5CC5)CC4)cn3)c2O)ccc(C#N)c1F [Example 307, 4-(1-(5-(4-cyclopropylpiperazine-1-carbonyl)pyridin-2-yl)-5-hydroxy-1H-pyrazol-4-yl)-2-fluoro-3-methylbenzonitrile]	2340 nM
6.91	N#Cc1ccc(-c2cnn(-c3ccc(C(=O)NC4CCC(F)(F)CC4)cn3)c2O)cc1 [Example 84, 6-(4-(4-cyanophenyl)-5-hydroxy-1H-pyrazol-1-yl)-N-(4,4-difluorocyclohexyl)nicotinamide]	2240 nM
8.20	Cc1cc(C#N)ccc1-c1cnn(-c2ccc(C(=O)N3CCN(C(C)C)[C@H](C)C3)cn2)c1O [Example 379, (R)-4-(5-hydroxy-1-(5-(4-isopropyl-3-methylpiperazine-1-carbonyl)pyridin-2-yl)-1H-pyrazol-4-yl)-3-methylbenzonitrile]	794 nM
8.59	Cc1cc(C#N)c(F)cc1-c1cnn(-c2ccc(C(=O)N3CCN(C)CC3)cn2)c1O [Example 396, 2-fluoro-4-(5-hydroxy-1-(5-(4-methylpiperazine-1-carbonyl)pyridin-2-yl)-1H-pyrazol-4-yl)-5-methylbenzonitrile]	2090 nM
7.4	COc1cc(-c2cnn(-c3ccc(C(=O)NCC4CCN(C)C4)cn3)c2O)ccn1 (stereo not shown) [Example 36, 6-(5-hydroxy-4-(2-methoxypyridin-4-yl)-1H-pyrazol-1-yl)-N-((1-methylpyrrolidin-3-yl)methyl)nicotinamide]	1480 nM
7.21	COCCC1(NC(=O)c2ccc(-n3ncc(-c4ccc(C#N)cc4C)c3O)nc2)CC1 [Example 215, 6-(4-(4-cyano-2-methylphenyl)-5-hydroxy-1H-pyrazol-1-yl)-N-(1-(2-methoxyethyl)cyclopropyl)nicotinamide]	257 nM
7.03	N#Cc1ccc(-c2cnn(-c3ccc(C(=O)NCCC4CC4)cn3)c2O)cc1 [Example 53, 6-(4-(4-cyanophenyl)-5-hydroxy-1H-pyrazol-1-yl)-N-(2-cyclopropylethyl)nicotinamide]	525 nM
7.57	O=C(NCc1ccccc1)c1ccc(-n2ncc(-n3ccccc3=O)c2O)nc1 [Example 193, N-benzyl-6-(5-hydroxy-4-(2-oxopyridin-1(2H)-yl)-1H-pyrazol-1-yl)nicotinamide]	2690 nM

— patent US10407409B2, “6-(5-hydroxy-1H-pyrazol-1-yl)nicotinamide inhibitors of PHD” (Takeda Pharmaceutical Company Limited, priority 2013, dated 2019)
